# Measurements as given in PubChem BioAssay (NCI).
#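 Growth conditions: 96-well plates. Treatment: test compound, 48 hours, 5 concentrations. Analysis: linear interpolation between bracketing concentrations; unreached endpoints set to highest concentration. The concentration for 50% growth inhibition is given as GI50. TGI is the concentration that stops growth completely.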
# Columns and labels:
# Assay in all cases: NCI anticancer screen, dose series, 48 h
# [1] = test system: 786-0 renal
# [2] = test system: A498 renal
# [3] = test system: A549 NSCLC
# [4] = test system: ACHN renal
# [5] = test system: BT-549 breast
# [6] = test system: CAKI-1 renal
# [7] = test system: CCRF-CEM leukemia
# [8] = test system: COLO 205 colon
# [9] = test system: DU-145 prostate
# [10] = test system: EKVX NSCLC
# [11] = test system: HCC-2998 colon
# [12] = test system: HCT-116 colon
# [13] = test system: HCT-15 colon
# [14] = test system: HL-60(TB) leukemia
# [15] = test system: HOP-62 NSCLC
# [16] = test system: HOP-92 NSCLC
# [17] = test system: HS 578T breast
# [18] = test system: HT29 colon
# [19] = test system: IGROV1 ovarian
# [20] = test system: KM12 colon
# [21] = test system: LOX IMVI melanoma
# [22] = test system: M14 melanoma
# [23] = test system: MALME-3M melanoma
# [24] = test system: MCF7 breast
# [25] = test system: MDA-MB-231 breast
# [26] = test system: MDA-MB-435
# [27] = test system: MOLT-4 leukemia
# [28] = test system: NCI-H226 lung
# [29] = test system: NCI-H23 lung
# [30] = test system: NCI-H460 lung
# [31] = test system: NCI-H522 lung
# [32] = test system: NCI/ADR-RES ovarian
# [33] = test system: OVCAR-3 ovarian
# [34] = test system: OVCAR-4 ovarian
# [35] = test system: OVCAR-5 ovarian
# [36] = test system: OVCAR-8 ovarian
# [37] = test system: PC-3 prostate
# [38] = test system: RPMI-8226 leukemia
# [39] = test system: RXF 393 renal
# [40] = test system: SF-268 CNS
# [41] = test system: SF-295 CNS
# [42] = test system: SF-539 CNS
# [43] = test system: SK-MEL-2 melanoma
# [44] = test system: SK-MEL-28 melanoma
# [45] = test system: SK-MEL-5 melanoma
# [46] = test system: SK-OV-3 ovarian
# [47] = test system: SN12C renal
# [48] = test system: SNB-19 CNS
# [49] = test system: SNB-75 CNS
# [50] = test system: SR leukemia
# [51] = test system: SW-620 colon
# [52] = test system: T-47D breast
# [53] = test system: TK-10 renal
# [54] = test system: U251 CNS
# [55] = test system: UACC-257 melanoma
# [56] = test system: UACC-62 melanoma
# [57] = test system: UO-31 renal
smiles,measurement,setting,value
COC(=O)[C@@H]1CCCN1C(=O)[C@@H]1CCCN1C(=O)[C@H](Cc1ccccc1)NC(=S)Nc1cc(C(F)(F)F)cc(C(F)(F)F)c1,GI50,[1],4.47 µM
same,TGI,[1],> 100 µM
same,GI50,[2],2.55 µM
same,TGI,[2],22.9 µM
same,GI50,[3],3.82 µM
same,TGI,[3],> 100 µM
same,GI50,[4],3.98 µM
same,TGI,[4],> 100 µM
same,GI50,[5],4.39 µM
same,TGI,[5],71.5 µM
same,GI50,[6],3.55 µM
same,TGI,[6],> 100 µM
same,GI50,[7],3.54 µM
same,TGI,[7],> 100 µM
same,GI50,[8],2.43 µM
same,TGI,[8],5.85 µM
same,GI50,[9],5.06 µM
same,TGI,[9],> 100 µM
same,GI50,[10],3.07 µM
same,TGI,[10],> 100 µM
same,GI50,[11],2.65 µM
same,TGI,[11],7.06 µM
same,GI50,[12],3.01 µM
same,TGI,[12],15.2 µM
same,GI50,[13],3.8 µM
same,TGI,[13],> 100 µM
same,GI50,[14],2.53 µM
same,TGI,[14],5.49 µM
same,GI50,[15],4.56 µM
same,TGI,[15],72.5 µM
same,GI50,[16],1.77 µM
same,TGI,[16],5.65 µM
same,GI50,[17],4.49 µM
same,TGI,[17],> 100 µM
same,GI50,[18],2.76 µM
same,TGI,[18],6.51 µM
same,GI50,[19],7.24 µM
same,TGI,[19],> 100 µM
same,GI50,[20],3.93 µM
same,TGI,[20],> 100 µM
same,GI50,[21],2.6 µM
same,TGI,[21],9.89 µM
same,GI50,[22],3.7 µM
same,TGI,[22],> 100 µM
same,GI50,[23],5.53 µM
same,TGI,[23],> 100 µM
same,GI50,[24],3.08 µM
same,TGI,[24],> 100 µM
same,GI50,[25],2.04 µM
same,TGI,[25],5.6 µM
same,GI50,[26],3.29 µM
same,TGI,[26],> 100 µM
same,GI50,[27],2.88 µM
same,TGI,[27],7.88 µM
same,GI50,[28],3.39 µM
same,TGI,[28],> 100 µM
same,GI50,[29],3.16 µM
same,TGI,[29],> 100 µM
same,GI50,[30],3.4 µM
same,TGI,[30],> 100 µM
same,GI50,[31],3.17 µM
same,TGI,[31],9.6 µM
same,GI50,[32],2.99 µM
same,TGI,[32],> 100 µM
same,GI50,[33],3.43 µM
same,TGI,[33],9.98 µM
same,GI50,[34],4.29 µM
same,TGI,[34],> 100 µM
same,GI50,[35],3.8 µM
same,TGI,[35],42.4 µM
same,GI50,[36],4.31 µM
same,TGI,[36],> 100 µM
same,GI50,[37],2.72 µM
same,TGI,[37],26.2 µM
same,GI50,[38],3.36 µM
same,TGI,[38],41 µM
same,GI50,[39],2.19 µM
same,TGI,[39],7.41 µM
same,GI50,[40],4.83 µM
same,TGI,[40],> 100 µM
same,GI50,[41],2.16 µM
same,TGI,[41],4.82 µM
same,GI50,[42],4.51 µM
same,TGI,[42],> 100 µM
same,GI50,[43],2.93 µM
same,TGI,[43],7.39 µM
same,GI50,[44],3.48 µM
same,TGI,[44],> 100 µM
same,GI50,[45],2.6 µM
same,TGI,[45],9.18 µM
same,GI50,[46],9.26 µM
same,TGI,[46],> 100 µM
same,GI50,[47],3.47 µM
same,TGI,[47],> 100 µM
same,GI50,[48],3.77 µM
same,TGI,[48],> 100 µM
same,GI50,[49],2.06 µM
same,TGI,[49],61 µM
same,GI50,[50],3.69 µM
same,TGI,[50],24.9 µM
same,GI50,[51],5.11 µM
same,TGI,[51],> 100 µM
same,GI50,[52],4.27 µM
same,TGI,[52],> 100 µM
same,GI50,[53],5.41 µM
same,TGI,[53],> 100 µM
same,GI50,[54],2.79 µM
same,TGI,[54],13.2 µM
same,GI50,[55],2.92 µM
same,TGI,[55],11.4 µM
same,GI50,[56],3.3 µM
same,TGI,[56],63.5 µM
same,GI50,[57],3.3 µM
same,TGI,[57],> 100 µM
